In the supplement of paper PMC9763283:

Tests used:
Experiment in all cases: area under growth-rate inhibition curve (AUC GRI) (dimensionless (GR-based AUC)); higher = less growth inhibition
Settings in all cases: exposure time: 72 h; concentrations: 0.1, 1, 10 uM
BT474-LTR = system: BT474-LTR
Procedure, shortened: (§1)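 Six breast cancer cell line models (two triple-negative lines, plus parental and lapatinib + trastuzumab-resistant HER2+ lines) were plated at optimised log-phase densities and exposed to compound at 0.1, 1 or 10 µM for 72 h. Cells were fixed in 4% paraformaldehyde, and nuclei were stained with Hoechst 33342 or DAPI, imaged and counted. Area under the growth-rate inhibition curve came from 2 biological replicates, with growth corrected using Day 0 plates, untreated Day 3 plates and DMSO controls.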

BT474-P = system: BT474-P
Procedure, shortened: as §1

SKBR3-LTR = system: SKBR3-LTR
Procedure, shortened: as §1

SKBR3-P = system: SKBR3-P
Procedure, shortened: as §1

MDA-MB-468 = system: MDA-MB-468
Procedure, shortened: as §1

MDA-MB-231 = system: MDA-MB-231
Procedure, shortened: as §1

SMILES | area under growth-rate inhibition curve (BT474-LTR) | area under growth-rate inhibition curve (BT474-P) | area under growth-rate inhibition curve (SKBR3-LTR) | area under growth-rate inhibition curve (SKBR3-P) | area under growth-rate inhibition curve (MDA-MB-468) | area under growth-rate inhibition curve (MDA-MB-231)
C[NH+]1CCC[C@@H]1CCO[C@](C)(c1ccccc1)c1ccc(Cl)cc1.O=C([O-])/C=C/C(=O)O [Clemastine Fumarate] | 1.02 | 0.941 | 0.958 | 0.898 | 0.932 | 1.02
CCN(CC)CCOc1ccc(C(=C(Cl)c2ccccc2)c2ccccc2)cc1.O=C(O)CC(O)(CC(=O)O)C(=O)O [Clomifene citrate] | 0.876 | 0.796 | 0.941 | 0.914 | 0.94 | 0.915
Cl.Clc1cccc(Cl)c1NC1=NCCN1 [Clonidine HCl] | 1.16 | 1.08 | 1.06 | 1.04 | 1.07 | 1.05
COC(=O)[C@H](c1ccccc1Cl)N1CCc2sccc2C1 [Clopidogrel] | 1.07 | 1.06 | 1.06 | 1.01 | 1.03 | 1
CN1CCN(C2=Nc3cc(Cl)ccc3Nc3ccccc32)CC1 [Clozapine] | 1.09 | 1.06 | 1.07 | 1.01 | 1.03 | 1.04
CN1CCN(C(c2ccccc2)c2ccccc2)CC1.[Cl-].[Cl-].[H+].[H+] [Cyclizine 2HCl] | 1.07 | 1.03 | 1 | 1.01 | 1.02 | 1.03
CN1CCC(=C2c3ccccc3C=Cc3ccccc32)CC1.[Cl-].[H+] [Cyproheptadine HCl] | 1.03 | 1.03 | 1.09 | 1 | 1 | 1.02
CCOc1ccc(Cc2cc([C@@H]3O[C@H](CO)[C@@H](O)[C@H](O)[C@H]3O)ccc2Cl)cc1 [Dapagliflozin] | 1.07 | 1.01 | 1.05 | 1.01 | 1.01 | 1.01
CN(C)[C@@H](CCOc1cccc2ccccc12)c1ccccc1.[Cl-].[H+] [Dapoxetine HCl] | 1.03 | 0.985 | 1.03 | 0.974 | 0.991 | 1.02
C[N+](C)(C)CCCCCCCCCC[N+](C)(C)C.[Br-].[Br-] [Decamethonium Bromide] | 1.1 | 1.06 | 1.04 | 1.03 | 1.03 | 1.04
Clc1ccc2c(c1)CCc1cccnc1C2=C1CCNCC1 [Desloratadine] | 1.07 | 0.984 | 1.03 | 0.998 | 0.988 | 1
N=C(N)NCCC[C@@H](NC(=O)[C@@H]1CCCN1C(=O)[C@@H]1CSSCCC(=O)N[C@@H](Cc2ccc(O)cc2)C(=O)N[C@@H](Cc2ccccc2)C(=O)N[C@@H](CCC(N)=O)C(=O)N[C@@H](CC(N)=O)C(=O)N1)C(=O)NCC(N)=O [Desmopressin] | 0.999 | 0.995 | 1.01 | 1.02 | 1.02 | 1.01
CN(C)CC(c1ccc(O)cc1)C1(O)CCCCC1.O=C(O)CCC(=O)O (stereo not given) [Desvenlafaxine Succinate] | 1.09 | 1.06 | 1.08 | 1.01 | 1.05 | 1.02
CN(C)CC(c1ccc(O)cc1)C1(O)CCCCC1 (stereo not given) [Desvenlafaxine] | 1.07 | 1.03 | 1.05 | 1 | 1.03 | 1
Cc1cccc(Cc2cnc[nH]2)c1C.Cl [Detomidine HCl] | 1.04 | 1.01 | 1.08 | 0.991 | 1.02 | 1.03
Cc1cccc(C(C)c2c[nH]cn2)c1C (stereo not given) [Dexmedetomidine] | 1.1 | 1.04 | 1.04 | 1.04 | 1.02 | 1.04
Br.COc1ccc2c(c1)[C@@]13CCCCC1C(C2)N(C)CC3 (stereo not given in full) [Dextromethorphan hydrobromide] | 1.04 | 1.01 | 1.06 | 1.02 | 1.03 | 1.04
CC12CCC3=C4CCC(=O)C=C4CCC3C1CCC2(O)CC#N (stereo not given) [Dienogest] | 1.12 | 1.05 | 1.04 | 1.01 | 1.03 | 1.03
CCCC(=O)O[C@]1(C(=O)COC(C)=O)CC[C@H]2[C@@H]3C[C@H](F)C4=CC(=O)C=C[C@]4(C)[C@@]3(F)[C@@H](O)C[C@@]21C [Difluprednate] | 1.02 | 0.976 | 1.04 | 0.939 | 1.03 | 0.975
CN1C[C@H](C(=O)N[C@]2(C)O[C@@]3(O)[C@@H]4CCCN4C(=O)[C@H](Cc4ccccc4)N3C2=O)C[C@@H]2c3cccc4[nH]cc(c34)C[C@H]21.CS(=O)(=O)O [Dihydroergotamine mesylate] | 1.01 | 0.974 | 1.05 | 0.947 | 1.02 | 0.986
COS(=O)(=O)[O-].C[N+]1(C)CCC(=C(c2ccccc2)c2ccccc2)CC1 [Diphemanil Methylsulfate] | 1.03 | 1.05 | 1.03 | 0.971 | 1.01 | 1.03
OCCN(CCO)c1nc(N2CCCCC2)c2nc(N(CCO)CCO)nc(N3CCCCC3)c2n1 [Dipyridamole] | 1.12 | 1.04 | 1.05 | 1.05 | 0.962 | 0.97
CC(CCc1ccc(O)cc1)NCCc1ccc(O)c(O)c1.[Cl-].[H+] (stereo not given) [Dobutamine hydrochloride] | 1.01 | 0.992 | 1.07 | 1.03 | 1.04 | 1.02
O=c1[nH]c2ccccc2n1CCCN1CCC(n2c(=O)[nH]c3cc(Cl)ccc32)CC1 [Domperidone] | 1 | 0.993 | 1.04 | 0.962 | 0.926 | 1.01
NCCc1ccc(O)c(O)c1.[Cl-].[H+] [Dopamine HCl] | 1.11 | 1.04 | 1.07 | 1.02 | 1.03 | 1.02

SMILES | area under growth-rate inhibition curve (BT474-LTR) | area under growth-rate inhibition curve (BT474-P) | area under growth-rate inhibition curve (SKBR3-LTR) | area under growth-rate inhibition curve (SKBR3-P) | area under growth-rate inhibition curve (MDA-MB-468) | area under growth-rate inhibition curve (MDA-MB-231)
COc1cc2nc(N3CCN(C(=O)C4COc5ccccc5O4)CC3)nc(N)c2cc1OC.CS(=O)(=O)O (stereo not given) [Doxazosin Mesylate] | 1.07 | 0.991 | 1.03 | 0.958 | 0.966 | 0.99
O=C(CCCN1CC=C(n2c(=O)[nH]c3ccccc32)CC1)c1ccc(F)cc1 [Droperidol] | 1.04 | 1.03 | 1.07 | 1.02 | 0.992 | 1.02
CC12CCC(=O)C=C1C1CC1C1C2CCC2(C)C1C1CC1C21CCC(=O)O1 (stereo not given) [Drospirenone] | 1.09 | 1.04 | 1.05 | 1.03 | 1.05 | 1.01
CNCC[C@H](Oc1cccc2ccccc12)c1cccs1.[Cl-].[H+] [Duloxetine HCl] | 0.98 | 0.892 | 1.02 | 0.964 | 0.88 | 1
CC(C)(c1ccc(OCC(O)CO)cc1)c1ccc(OCC(O)CCl)cc1 (stereo not drawn) [EPI-001] | 1.07 | 0.993 | 1.07 | 1.01 | 1.01 | 1.05
CN1CCCC1Cc1c[nH]c2ccc(CCS(=O)(=O)c3ccccc3)cc12.[Br-].[H+] (stereo not given) [Eletriptan HBr] | 1.14 | 1.03 | 1.03 | 1.01 | 1.02 | 1.04
COc1ccc(CN(C(=O)C(N)Cc2c(C)cc(C(N)=O)cc2C)C(C)c2ncc(-c3ccccc3)[nH]2)cc1C(=O)O (stereo not given) [Eluxadoline] | 1.04 | 1 | 1.04 | 1.02 | 1.04 | 1.04
CNC[C@H](O)c1ccc(O)c(O)c1.O=C(O)[C@H](O)[C@@H](O)C(=O)O [Epinephrine Bitartrate] | 1.06 | 1.03 | 1.1 | 1.01 | 1.02 | 0.946
CNCC(O)c1ccc(O)c(O)c1.[Cl-].[H+] (stereo not given) [Epinephrine HCl] | 1.07 | 1.04 | 1.03 | 1.02 | 1 | 0.965
CCCCc1ncc(C=C(Cc2cccs2)C(=O)O)n1Cc1ccc(C(=O)O)cc1.CS(=O)(=O)O [Eprosartan mesylate] | 1.06 | 1.02 | 1.06 | 1.03 | 1.05 | 1.04
Oc1ccc([C@H]2COc3cc(O)ccc3C2)cc1 [Equol] | 1.08 | 1.07 | 1.05 | 1.05 | 1.01 | 1.02
CN(C)CCC[C@@]1(c2ccc(F)cc2)OCc2cc(C#N)ccc21.O=C(O)C(=O)O [Escitalopram Oxalate] | 1.1 | 1.03 | 1.02 | 0.985 | 1.02 | 1.02
CCCCC(=O)O[C@H]1CC[C@H]2[C@@H]3CCc4cc(O)ccc4[C@H]3CC[C@]12C [Estradiol valerate] | 1.05 | 1.04 | 1.05 | 1.02 | 1.03 | 1.01
C[C@]12CC[C@@H]3c4ccc(O)cc4CC[C@H]3[C@@H]1C[C@@H](O)[C@@H]2O [Estriol] | 1.01 | 0.979 | 1.01 | 0.989 | 0.987 | 0.988
C[C@]12CC[C@@H]3c4ccc(O)cc4CC[C@H]3[C@@H]1CCC2=O [Estrone] | 1.08 | 1.07 | 1.05 | 1.02 | 1 | 1.03
CCOC(=O)c1cncn1C(C)c1ccccc1 (stereo not given) [Etomidate] | 1.09 | 1.08 | 1.07 | 0.999 | 1.03 | 1.05
C#C[C@]1(O)CC[C@H]2[C@@H]3CCC4=CC(=O)CC[C@@H]4[C@H]3C(=C)C[C@@]21CC [Etonogestrel] | 0.993 | 0.958 | 1.05 | 1 | 1.03 | 0.976
CC1=C(C(=O)OC2CCCCC2)C(c2ccc([N+](=O)[O-])cc2)C2=C(CC(C)(C)CC2=O)N1 (stereo not given) [FLI-06] | 1.01 | 0.895 | 0.928 | 0.915 | 0.915 | 0.878
NC(N)=Nc1nc(CSCCC(N)=NS(N)(=O)=O)cs1 [Famotidine] | 1.09 | 1.02 | 1.08 | 1.03 | 1.05 | 1.02
NC(=O)OCC(COC(N)=O)c1ccccc1 [Felbamate] | 1.02 | 1.01 | 1.05 | 1.03 | 1.03 | 1.04
CC(C)C(=O)Oc1ccc(CO)cc1[C@H](CCN(C(C)C)C(C)C)c1ccccc1.O=C(O)/C=C/C(=O)O [Fesoterodine Fumarate] | 1 | 0.994 | 0.961 | 0.973 | 1.01 | 1.01
CC(C)(C(=O)O)c1ccc(C(O)CCCN2CCC(C(O)(c3ccccc3)c3ccccc3)CC2)cc1.[Cl-].[H+] (stereo not given) [Fexofenadine HCl] | 1.01 | 1.03 | 1.01 | 1.03 | 1.03 | 1
CCCCCCCCc1ccc(CCC(N)(CO)CO)cc1.Cl [Fingolimod (FTY720) HCl] | 0.96 | 0.836 | 0.814 | 0.901 | 0.864 | 0.829
CCOC(=O)c1ncn2c1CN(C)C(=O)c1cc(F)ccc1-2 [Flumazenil] | 1.06 | 1.03 | 1.03 | 0.989 | 1.02 | 1.01
CNCCC(Oc1ccc(C(F)(F)F)cc1)c1ccccc1.[Cl-].[H+] (stereo not given) [Fluoxetine HCl] | 1.03 | 1.02 | 1 | 1.02 | 1.03 | 1
